Assay results as given in the CheMixHub ionic liquid set.

Assay: xn = mol fraction of the nth substance listed

O=C([O-])C1=NN(c2ccc(S(=O)(=O)[O-])cc2)C(=O)C1N=Nc1ccc(S(=O)(=O)[O-])cc1.[Na+].[Na+].[Na+] (stereo unspecified) + CCCC[N+](CCCC)(CCCC)Cc1ccccc1.[Cl-] + O
electrical conductivity [S/m], 101.3 kPa, frequency 0.001 MHz
Conditions | 298.15 K | 308.15 K | 318.15 K
x1 = 0.0001802, x2 = 1.802e-05 | 0.11 | 0.131 | 0.158
x1 = 0.0001803, x2 = 5.405e-05 | 0.119 | 0.142 | 0.182
x1 = 0.0001804, x2 = 9.008e-05 | 0.151 | 0.168 | 0.196
x1 = 0.0004504, x2 = 1.801e-05 | 0.176 | 0.226 | 0.28
x1 = 0.0004507, x2 = 5.403e-05 | 0.201 | 0.248 | 0.328
x1 = 0.000451, x2 = 9.005e-05 | 0.263 | 0.301 | 0.353
x1 = 0.0007205, x2 = 1.801e-05 | 0.245 | 0.299 | 0.384
x1 = 0.0007209, x2 = 5.402e-05 | 0.269 | 0.342 | 0.452
x1 = 0.0007213, x2 = 9.003e-05 | 0.369 | 0.419 | 0.478
x1 = 0.0009904, x2 = 1.8e-05 | 0.319 | 0.38 | 0.493
x1 = 0.000991, x2 = 5.4e-05 | 0.353 | 0.438 | 0.577
x1 = 0.0009916, x2 = 9e-05 | 0.469 | 0.524 | 0.603
x1 = 0.00126, x2 = 1.8e-05 | 0.398 | 0.476 | 0.609
x1 = 0.001261, x2 = 5.399e-05 | 0.435 | 0.546 | 0.716
x1 = 0.001262, x2 = 8.998e-05 | 0.582 | 0.654 | 0.763
x1 = 0.00153, x2 = 1.799e-05 | 0.472 | 0.571 | 0.735
x1 = 0.001531, x2 = 5.397e-05 | 0.511 | 0.651 | 0.852
x1 = 0.001532, x2 = 8.995e-05 | 0.702 | 0.78 | 0.902

viscosity [mPa·s], 101.3 kPa
Conditions | 298.15 K | 308.15 K | 318.15 K
x1 = 0.0001802, x2 = 1.802e-05 | 0.933 | 0.799 | 0.663
x1 = 0.0001803, x2 = 5.405e-05 | 0.951 | 0.818 | 0.68
x1 = 0.0001804, x2 = 9.008e-05 | 0.971 | 0.836 | 0.699
x1 = 0.0004504, x2 = 1.801e-05 | 0.956 | 0.818 | 0.68
x1 = 0.0004507, x2 = 5.403e-05 | 0.975 | 0.839 | 0.698
x1 = 0.000451, x2 = 9.005e-05 | 0.996 | 0.858 | 0.719
x1 = 0.0007205, x2 = 1.801e-05 | 0.975 | 0.836 | 0.695
x1 = 0.0007209, x2 = 5.402e-05 | 0.995 | 0.858 | 0.715
x1 = 0.0007213, x2 = 9.003e-05 | 1.019 | 0.878 | 0.738
x1 = 0.0009904, x2 = 1.8e-05 | 0.994 | 0.853 | 0.711
x1 = 0.000991, x2 = 5.4e-05 | 1.015 | 0.877 | 0.733
x1 = 0.0009916, x2 = 9e-05 | 1.039 | 0.897 | 0.756
x1 = 0.00126, x2 = 1.8e-05 | 1.011 | 0.869 | 0.725
x1 = 0.001261, x2 = 5.399e-05 | 1.034 | 0.895 | 0.749
x1 = 0.001262, x2 = 8.998e-05 | 1.06 | 0.917 | 0.774
x1 = 0.00153, x2 = 1.799e-05 | 1.028 | 0.884 | 0.738
x1 = 0.001531, x2 = 5.397e-05 | 1.052 | 0.913 | 0.764
x1 = 0.001532, x2 = 8.995e-05 | 1.081 | 0.938 | 0.792

CCCCCC[P+](CCCC)(CCCC)CCCC.F[B-](F)(F)F + CC#N
viscosity [mPa·s], 100 kPa
Conditions | x1 = 0.004011 | x1 = 0.008155 | x1 = 0.01203 | x1 = 0.01615 | x1 = 0.01996 | x1 = 0.02404 | x1 = 0.02792 | x1 = 0.03151 | x1 = 0.03559 | x1 = 0.03974
293.15 K | 0.374 | 0.398 | 0.419 | 0.446 | 0.47 | 0.499 | 0.526 | 0.554 | 0.585 | 0.621
298.15 K | 0.357 | 0.379 | 0.399 | 0.423 | 0.446 | 0.472 | 0.497 | 0.523 | 0.551 | 0.585
303.15 K | 0.341 | 0.361 | 0.38 | 0.403 | 0.423 | 0.448 | 0.47 | 0.495 | 0.521 | 0.552
308.15 K | 0.326 | 0.345 | 0.362 | 0.383 | 0.403 | 0.425 | 0.446 | 0.469 | 0.493 | 0.522
313.15 K | 0.313 | 0.331 | 0.347 | 0.366 | 0.384 | 0.406 | 0.425 | 0.446 | 0.468 | 0.495
318.15 K | 0.3 | 0.317 | 0.332 | 0.35 | 0.367 | 0.387 | 0.405 | 0.424 | 0.445 | 0.47

C[N+](C)(C)Cc1ccccc1.[Cl-] + CCC(O)CO
101.13 kPa, x1 = 0.5
Conditions | electrical conductivity [S/m] | viscosity [mPa·s]
308 K | – | 64
323 K | 0.53 | –

CCCCCCCCCCCC[P+](CCCC)(CCCC)CCCC.N#Cc1ccc[n-]1 + OCCN(CCO)CCO
100 kPa
Conditions | electrical conductivity [S/m] | viscosity [mPa·s]
293.15 K, x1 = 0.001 | 0.0001 | –
293.15 K, x1 = 0.015 | 0.0027 | –
293.15 K, x1 = 0.035 | 0.0034 | 1037
293.15 K, x1 = 0.121 | – | 1056
293.15 K, x1 = 0.538 | 0.0049 | 770
293.15 K, x1 = 1 | 0.0082 | 567
298.15 K, x1 = 0.035 | – | 670
298.15 K, x1 = 0.325 | – | 623
298.15 K, x1 = 0.755 | – | 477
298.15 K, x1 = 1 | – | 389
303.15 K, x1 = 0.017 | – | 436
303.15 K, x1 = 0.054 | – | 439
303.15 K, x1 = 0.325 | – | 421
303.15 K, x1 = 0.755 | – | 336
303.15 K, x1 = 1 | – | 297
313.15 K, x1 = 0.096 | – | 217
313.15 K, x1 = 0.325 | – | 209

CO + CCCC[n+]1ccc(C)cc1.F[B-](F)(F)F
Conditions | viscosity [mPa·s]
298.15 K, 101 kPa, x1 = 1 | 0.538

CC(=O)[O-].CCCCC[N+](CCCCC)(CCCCC)CCCCC + CCCCCCCCCCCC[N+](C)(C)C.[Br-] + O
viscosity [mPa·s], 100 kPa
Conditions | x2 = 5.424e-05, x1 = 0.0001802 | x2 = 0.0001085, x1 = 0.0001801 | x2 = 0.0001627, x1 = 0.0001801 | x2 = 0.0002169, x1 = 0.0001801 | x2 = 0.0002711, x1 = 0.0001801 | x2 = 0.0003254, x1 = 0.0001801 | x2 = 0.0003796, x1 = 0.0001801 | x2 = 0.0004338, x1 = 0.0001801 | x2 = 0.000488, x1 = 0.0001801 | x2 = 0.0005421, x1 = 0.0001801
293.15 K | 1.029 | 1.031 | 1.033 | 1.034 | 1.034 | 1.035 | 1.035 | 1.036 | 1.036 | 1.036
298.15 K | 0.921 | 0.924 | 0.928 | 0.928 | 0.929 | 0.929 | 0.93 | 0.93 | 0.931 | 0.931
303.15 K | 0.811 | 0.813 | 0.816 | 0.819 | 0.822 | 0.825 | 0.825 | 0.828 | 0.829 | 0.83
308.15 K | 0.728 | 0.731 | 0.731 | 0.733 | 0.734 | 0.737 | 0.741 | 0.745 | 0.746 | 0.749
313.15 K | 0.659 | 0.661 | 0.664 | 0.666 | 0.667 | 0.669 | 0.669 | 0.67 | 0.671 | 0.671
318.15 K | 0.609 | 0.609 | 0.611 | 0.612 | 0.613 | 0.615 | 0.615 | 0.619 | 0.62 | 0.621
